Data from patent EP4803519A1, “NOVEL PRMT5 INHIBITOR AND USE THEREOF” (Shanghai Apeiron Therapeutics Company Limited, priority 2023, dated 2025).

Legend:
Assay type in all cases: cell-based
[1] = tested on: HCT-116 MTAP(-/-)deleted cells; assay: Inhibitory activity on proliferation of HCT-116 MTAP(-/-)deleted cells (Cell-Titer Glo); details: Homo sapiens, 144 h, incubated 6 d, 0-1,000 nM
Protocol: (§1) Materials and cells: HCT-116 MTAP(-/-)deleted cells were purchased from Kyinno Biotechnology (China); RPMI-1640 medium, and fetal bovine serum were purchased from Thermo Fisher (United States); 384-well plates were purchased from PerkinElmer (United States); Cell-Titer Glo kit was purchased from Promega (United States).
Cell culture: HCT116 MTAP(-/-)deleted cells were cultured with RPMI 1640 medium containing 10% fetal bovine serum at 37°C in 5% carbon dioxide. Only cells in the logarithmic growth phase could be used for the test.
(§2) Test of inhibitory activity on cell proliferation: The Cell-Titer Glo kit was used to test the proliferation inhibitory activity of the compounds on HCT-116 MTAP(-/-)deleted cells. The cell concentration was adjusted, rendering that cells were inoculated into a 384-well plate at 40 µL per well and incubated overnight at 37°C and 5% carbon dioxide. 80 nL of the compound was added into each well to reach a final concentration of 0-1,000 nM (starting concentration 1,000 nM, 2.5-fold dilution, 10 points), and the cell plate with 0.2% DMSO content was incubated at 37°C and 5% carbon dioxide for 6 d. 40 µL of Cell-Titer Glo reagent was added to test cell viability.

HCT-116 wild-type cells = assay: Inhibitory activity on proliferation of HCT-116 wild-type cells (Cell-Titer Glo); details: Homo sapiens, 144 h, incubated 6 d, 0-10,000 nM
Protocol: as §1, with “wild-type” for “MTAP(-/-)deleted”
Cell culture: HCT-116 wild-type cells were cultured in RPMI-1640 medium containing 10% fetal bovine serum at 37°C and 5% carbon dioxide. Only cells in the logarithmic growth phase could be used for the test.
Test of cell proliferation activity: Cell-Titer Glo kit was used to test the proliferation inhibitory activity of the compound on HCT-116 wild-type cells. The cell concentration was adjusted, rendering that cells were inoculated into a 384-well plate at 40 µL per well and incubated overnight at 37°C and 5% carbon dioxide. 80 nL of the compound was added to each well to reach a final concentration of 0-10,000 nM (starting concentration 10,000 nM, 2.5-fold dilution, 10 points), and the cell plate with 0.2% DMSO content was incubated at 37°C and 5% carbon dioxide for 6 d. 40 µL of Cell-Titer Glo reagent was added to test cell viability.

[2] = tested on: LU99 MTAP(-/-)deleted cells; assay: Inhibitory activity on proliferation of LU99 MTAP(-/-)deleted cells (Cell-Titer Glo); details: Homo sapiens, Lu-99, 144 h, incubated 6 d, 0-1,000 nM
Protocol: (§3) Materials and cells: LU99 MTAP deleted cell line was purchased from Kyinno Biotechnology (China); cell culture medium and fetal bovine serum were purchased from Thermo Fisher Scientific (USA); 384-well plates were purchased from PerkinElmer (USA); Cell-Titer Glo kits were purchased from Promega (USA).
Cell culture: LU99 MTAP(-/-)deleted cells were cultured with medium containing 10% fetal bovine serum at 37°C in 5% carbon dioxide. Only cells in the logarithmic growth phase could be used for the test.
as §2, with “on LU99” for “on HCT-116”, “dioxide. 40” for “dioxide. 80”, “added to” for “added into”

[3] = tested on: LU99 MTAP overexpressing cells; assay: Inhibitory activity on proliferation of LU99 MTAP overexpressing cells (Cell-Titer Glo); details: Homo sapiens, Lu-99, 144 h, incubated 6 d, 0-10,000 nM
Protocol: as §3, with “overexpressing” for “deleted”
Cell culture: LU99 MTAP overexpressing cells were cultured with medium containing 10% fetal bovine serum at 37°C in 5% carbon dioxide. Only cells in the logarithmic growth phase could be used for the test.
Test of inhibitory activity on cell proliferation: The Cell-Titer Glo kit was used to test the proliferation inhibitory activity of the compounds on LU99 MTAP overexpressing cells. The cell concentration was adjusted, rendering that cells were inoculated into a 384-well plate at 40 µL per well and incubated overnight at 37°C and 5% carbon dioxide. 40 nL of the compound was added to each well to reach a final concentration of 0-10,000 nM (starting concentration 10,000 nM, 2.5-fold dilution, 10 points), and the cell plate with 0.2% DMSO content was incubated at 37°C and 5% carbon dioxide for 6 d. 40 µL of Cell-Titer Glo reagent was added to test cell viability.

IC50 [1]	IC50 (HCT-116 wild-type cells)	Compound	IC50 [2]	IC50 [3]
16 nM	3510 nM	CN(C(=O)c1ccc2nc(N)c3c(c2c1)COC3)C1COC(C)(C)c2cc(C(F)(F)F)ccc21 (centres unmarked) [Example 8, 4-Amino-N-(1,1-dimethyl-7-(trifluoromethyl)isochroman-4-yl)-N-methyl-2,3-dihydrofuro[3,4-c]quinoline-8-carboxamide]	25.2 nM	3250 nM
5.9 nM	1600 nM	CN(C(=O)c1ccc2nc(N)c3cnn(C)c3c2c1)C1COC(C)(C)c2cc(-n3cc(C(F)(F)F)cn3)ccc21 (centres unmarked) [Example 47, 4-amino-N-(1,1-dimethyl-7-(4-(trifluoromethyl)-1H-pyrazol-1-yl)isochroman-4-yl)-N,1-dimethyl-1H-pyrazolo[4,3-c]quinoline-8-carboxamide]	7.5 nM	1380 nM
45.4 nM	> 10000 nM	CN(C(=O)c1cc2c3c(c(N)nc2cn1)COC3)C1COC(C)(C)c2cc(-c3ccnn3C)ccc21 (centres unmarked) [Example 9, (4-Amino(1,3-dihydrofuro[3,4-d]pyrido[5,4-b]pyridin-8-yl))-N-[1,1-dimethyl-7-(1-methylpyrazol-5-yl)isochroman-4-yl]-N-methylformamide]	85 nM	9790 nM
13 nM	2200 nM	CN(C(=O)c1cc2c3c(c(N)nc2cn1)COC3)C1COC2(CC2)c2cc(C(F)(F)F)ccc21 (centres unmarked) [Example 40, 4-Amino-N-methyl-N-(7'-(trifluoromethyl)spiro[cyclopropane-1,1'-isochroman]-4'-yl)-1,3-dihydrofuro[3,4-c][1,7]naphthyridine-8-carboxamide]	21.2 nM	2040 nM
10.9 nM	720 nM	CN(C(=O)c1cc2c(cc1F)nc(N)c1cnn(C)c12)C1COC(C)(C)c2cc(Br)ccc21 (centres unmarked) [Example 13, (4-Amino-7-fluoro-1-methylpyrazolo[4,5-c]quinolin-8-yl)-N-(7-bromo-1,1-dimethylisochroman-4-yl)-N-methylformamide]	18.9 nM	1070 nM
874 nM	> 10000 nM	CN(C(=O)c1cc2c3c(c(N)nc2cn1)COC3)[C@H]1COC2(CCC2)c2cc(C(F)(F)F)ccc21 [Example 45, (R)-4-amino-N-methyl-N-(7'-(trifluoromethyl)spiro[cyclobutane-1,1'-isochroman]-4'-yl)-1,3-dihydrofuro[3,4-c][1,7]naphthyridine-8-carboxamide]	944 nM	> 10000 nM
20.8 nM	4370 nM	CN(C(=O)c1ccc2nc(N)c3c(cnn3C)c2c1)[C@@H]1COC(C)(C)c2cc(C(F)(F)F)ccc21 [Example 21, (S)-4-amino-N-(1,1-dimethyl-7-(trifluoromethyl)isochroman-4-yl)-N,3-dimethyl-3H-pyrazolo[3,4-c]quinoline-8-carboxamide]	33.7 nM	2820 nM
5.3 nM	1340 nM	CN(C(=O)c1ccc2nc(N)c3cnn(C)c3c2c1)[C@@H]1COC(C)(C)c2cc(N3CCOCC3)ccc21 [Example 33, (S)-4-amino-N-(1,1-dimethyl-7-morpholinoisochroman-4-yl)-N,1-dimethyl-1H-pyrazolo[4,3-c]quinoline-8-carboxamide]	8.6 nM	2260 nM
140 nM	5550 nM	CN(C(=O)c1ccc2nc(N)c3cnn(C)c3c2c1)[C@H]1COC(C)(C)c2cc(C(F)(F)F)ccc21 [Example 17, (R)-4-amino-N-(1,1-dimethyl-7-(trifluoromethyl)isochroman-4-yl)-N,1-dimethyl-1H-pyrazolo[4,3-c]quinoline-8-carboxamide]	174 nM	5220 nM
817 nM	> 10000 nM	CN(C(=O)c1cc2c3c(c(N)nc2cn1)COC3)[C@H]1COC(C)(C)c2cc(C(F)(F)F)ccc21 [Example 25, (R)-4-Amino-N-(1,1-dimethyl-7-(trifluoromethyl)isochroman-4-yl)-N-methyl-1,3-dihydrofuro[3,4-c][1,7]naphthyridine-8-carboxamide]	503 nM	> 10000 nM
11 nM	2050 nM	CN(C(=O)c1cc2c3c(c(N)nc2cn1)COC3)[C@@H]1COC(C)(C)c2cc(C(F)(F)F)ccc21 [Example 26, (S)-4-Amino-N-(1,1-dimethyl-7-(trifluoromethyl)isochroman-4-yl)-N-methyl-1,3-dihydrofuro[3,4-c][1,7]naphthyridine-8-carboxamide]	14.9 nM	1310 nM
4.1 nM	286 nM	CN(C(=O)c1cc2c(cc1F)nc(N)c1cnn(C)c12)C1COC(C)(C)c2cc(-c3ccnn3C)ccc21 (centres unmarked) [Example 14, (4-amino-7-fluoro-1-methylpyrazolo[4,5-c]quinolin-8-yl)-N-[1,1-dimethyl-7-(1-methylpyrazol-5-yl)isochroman-4-yl]-N-methylformamide]	5.9 nM	309 nM
10.1 nM	2060 nM	CN(C(=O)c1ccc2nc(N)c3c(c2c1)COC3)C1COC(C)(C)c2cc(-c3ccnn3C)ccc21 (centres unmarked) [Example 10, 4-Amino-N-(1,1-dimethyl-7-(1-methyl-1H-pyrazol-5-yl)isochroman-4-yl)-N-methyl-1,3-dihydrofuro[3,4-c]quinoline-8-carboxamide]	18.3 nM	3740 nM
6.7 nM	1370 nM	CN(C(=O)c1ccc2nc(N)c3cnn(C)c3c2c1)[C@@H]1COC2(CCC2)c2cc(C(F)(F)F)ncc21 [Example 84, N-[(4S)-7-(trifluoromethyl)spiro[1,4-dihydro-3H-pyrano[4,5-c]pyridine-1,1'-cyclobutan]-4-yl](4-amino-1-methylpyrazolo[4,5-c]quinolin-8-yl)-N-methylformamide]	10 nM	1640 nM
7.9 nM	3850 nM	CN(C(=O)c1ccc2nc(N)c3cnn(C)c3c2c1)[C@@H]1COC(C)(C)c2cc(N3CC4(COC4)C3)ccc21 [Example 49, (S)-4-amino-N-(1,1-dimethyl-7-(2-oxa-6-azaspiro[3.3]heptan-6-yl)isochroman-4-yl)-N,1-dimethyl-1H-pyrazolo[4,3-c]quinoline-8-carboxamide]	19.2 nM	5890 nM
21.2 nM	2610 nM	CC1OCc2c1c(N)nc1ccc(C(=O)N(C)C3COC(C)(C)c4cc(C(F)(F)F)ccc43)cc21 (centres unmarked) [Example 12, 4-Amino-N-(1,1-dimethyl-7-(trifluoromethyl)isochroman-4-yl)-N,3-dimethyl-1,3-dihydrofuro[3,4-c]quinoline-8-carboxamide]	32.3 nM	1990 nM
9.4 nM	3850 nM	CN1CCN(c2ccc3c(c2)C(C)(C)OCC3N(C)C(=O)c2ccc3nc(N)c4cnn(C)c4c3c2)CC1 (centres unmarked) [Example 80]	16.8 nM	3660 nM
